The source of these data is publication PMC9315535 (Microorganisms, 2022).

One data set is described as follows: in vitro. The conditions noted are these: Cercopithecus aethiops (African green monkey).
For data set [1], the target named is T1, YFV NS2B/NS3pro (Yellow fever virus, UniProt Q1X881). The data set is described as follows: biochemical. The class given is binding.
For data set [2], the target named is T2, ZIKV NS2B/NS3pro (Zika virus, UniProt A0A140DLX4). Kind of data set: Thermal unfolding followed by Trp fluorescence, ZIKV protease. The class given is binding. The conditions noted are these: protease alone 43 °C.
Data set [3] addresses T3, CHIKV nsP2pro (Chikungunya virus, UniProt Q8JUX6). Kind of data set: Thermal unfolding followed by Trp fluorescence, CHIKV protease. The data set is classed as binding.
Data set [4] concerns the target T2, ZIKV NS2B/NS3pro. Kind of data set: biochemical.
Data set [5] concerns Chikungunya virus (strain ECSA). The data set is described as follows: Virucidal / time-of-drug addition plaque-forming assay, CHIKV. The data set is classed as cell-based. Particulars: 50 µM, virus and compound incubated 1 h at RT, Vero cells.
The target of data set [6] is T2, ZIKV NS2B/NS3pro. Kind of data set: biochemical. The data set is classed as binding.
The target of data set [7] is T1, YFV NS2B/NS3pro. The class given is binding.
The test system of data set [8] is serine protease of the human cytomegalovirus (HCMV). The arrangement: method as in PMID 8639546. Particulars: cited from earlier work.
In data set [9] the target is T1, YFV NS2B/NS3pro. Kind of data set: biochemical.
In data set [10] the test system is yellow fever virus (vaccinal strain). The data set is classed as cell-based.
In data set [11] the test system is Zika virus (strain ZIKVBR). The data set is described as follows: Virucidal / time-of-drug addition plaque-forming assay, ZIKV. The class given is cell-based. Particulars: 50 µM, Vero cells.
In data set [12] the target is T3, CHIKV nsP2pro. The data set is described as follows: biochemical.
In data set [13] the target is T3, CHIKV nsP2pro. Kind of data set: biochemical. The data set is classed as binding.
The conditions of data set [14]: ref https://www.drugbank.ca/drugs/DB00140; cited from earlier work.
In a further data set the test system is ZIKV NS2B/NS3 protease. Particulars: Targeted virus ZIKV; cited from earlier work.
The next data set concerns YFV NS2B/NS3 protease. Particulars: cited from earlier work.
Another data set deals with CHIKV nsP2 protease. The arrangement: method as in PMID 33661906. The conditions noted are these: Targeted virus CHIKV; cited from earlier work.
[15] abbreviates: read-out: Inhibition of protease activity, primary test.

`Cc1cc2nc3c(=O)[nH]c(=O)nc-3n(C[C@H](O)[C@H](O)[C@H](O)CO)c2cc1C` [riboflavin]: the CC50 in “in vitro” came to 72.3 µM. Besides, the “Excitation Shift” value at YFV NS2B/NS3pro [1], at ZIKV NS2B/NS3pro [6] and at CHIKV nsP2pro [13] was “blue edge excitation shift” each time. The results for the equilibrium dissociation constant (Kd) on YFV NS2B/NS3pro [1], on ZIKV NS2B/NS3pro [6] (KD ± STD) and at CHIKV nsP2pro [13] were 18.2 ± 3.9 µM, 25.1 µM and 2.8 ± 0.7 µM, respectively. Further, the “Effect on cell viability” value with Vero cells is reported as “does not affect cell viability”. In addition, the figures for the “Tm of protease-riboflavin complex” value at ZIKV NS2B/NS3pro [2], on CHIKV nsP2pro [3] (protease alone 47 °C) and at YFV NS2B/NS3pro [7] were 51 °C, 52 °C and 51 °C, respectively. Also, the shift in melting temperature (ΔTm) is 5 °C at CHIKV nsP2pro [3] (protein 10 µM, riboflavin 75 µM) and 4 °C at YFV NS2B/NS3pro [7]. Besides, the “Inhibition Mode” value (at ZIKV NS2B/NS3pro [4]; in data set [8]; at YFV NS2B/NS3pro [9]; at CHIKV nsP2pro [12]) was “competitive” in each case. At ZIKV NS2B/NS3pro [4] (1 h, read-out: Final concentration to inhibit 100% of protease), the IC100 was 220 µM. Further, the IC50 against ZIKV NS2B/NS3pro [4] (IC50 ± STD) was 79.4 ± 5 µM; against ZIKV NS2B/NS3pro [4] (pIC50), 79.4 µM; in data set [8], 0.3 µM; at YFV NS2B/NS3pro [9], 45.7 ± 2.9 µM; against CHIKV nsP2pro [12], 0.093 ± 0.0057 µM. Also, the inhibition at 20 µM on ZIKV NS2B/NS3pro [4] (setting [15]) worked out at 10%; on YFV NS2B/NS3pro [9] (setting [15]), 30%; on CHIKV nsP2pro [12] (setting [15]), 100%. The “Decrease of CHIKV replication, virucidal assay” value in data set [5] came to 44.35%. In addition, at YFV NS2B/NS3pro [9], the “Final concentration to inhibit 100% of protease” value stood at 200 µM. The “Prevention of virus entry (virucidal assay)” value in [10] and in data set [11] was “not observed” in each case. In addition, at CHIKV nsP2pro [12], the “LE (ligand efficiency)” value is listed as 0.36. For the same compound, the “Required concentration to inhibit protease (100%)” value at CHIKV nsP2pro [12] is on record as 5 µM. Moreover, the inhibition at 1 µM at CHIKV nsP2pro [12] (setting [15]) is around 85%. In addition, in data set [14], the LogP was −1.5.
For the compound `CO[C@@H]1[C@@H](OC(N)=O)[C@@H](O)[C@H](Oc2ccc3c(O)c(NC(=O)c4ccc(O)c(CC=C(C)C)c4)c(=O)oc3c2C)OC1(C)C` [Novobiocin], in the data set on ZIKV NS2B/NS3 protease, the IC50 is […].
`COc1ccc2c(O[C@@H]3C[C@H]4C(=O)N[C@]5(C(=O)NS(=O)(=O)C6CC6)C[C@H]5/C=C\CCCCN(C)C(=O)[C@@H]4C3)cc(-c3nc(C(C)C)cs3)nc2c1C` [Simeprevir]: the IC50 in the data set on ZIKV NS2B/NS3 protease is 2.6 µM.
Turning to `COc1ccc([C@@H]2CC(=O)c3c(O)cc(O)cc3O2)cc1O` [Hesperetin], the concentration for half-maximal inhibition (IC50) in the data set with YFV NS2B/NS3 protease is 2 µM; with CHIKV nsP2 protease it was 2.5 µM; with ZIKV NS2B/NS3 protease, 12.6 µM.
